Data as given in patent US7622256B2, “Method for selecting compounds that modulate MIF-induced expression of ICAM-1 and/or VCAM-1” (Avigen, Inc., priority 2006, dated 2009).

Experiments:
[1] = tested on: rMIF-induced cell surface VCAM-1 expression in PBMCs; assay: Cell surface ELISA of VCAM-1 expression in stimulated PBMC culture; type: cell-based, Human; settings: for % change in VCAM-1 expression with ibudilast: normalized to no stimulant levels, n = 2
Description: (§1) In order to determine whether ibudilast antagonized MIF activity, a peripheral blood mononuclear cell (PBMC) culture model was used. Human PBMCs were isolated by Ficoll gradient. Cells were plated in a 96-well tissue culture plate in RPMI medium without serum and incubated overnight to achieve quiescence. They were then treated with 0.1% DMSO (vehicle) or ibudilast at 10 μM, one hour prior to stimulation with recombinant human MIF (0.8, 8, or 80 nM) or LPS (10 ng/mL). 9 hours post-stimulation, the adherent cells were fixed and analyzed for expression of […] adhesion molecule-1 (ICAM-1) and vascular cell adhesion molecule-1 (VCAM-1) via cell surface enzyme linked immunosorbent assay (ELISA).

[2] = tested on: rMIF-induced cell surface ICAM-1 expression in PBMCs; assay: Cell surface ELISA of ICAM-1 expression in stimulated PBMC culture; type: cell-based, Human; settings: for % change in ICAM-1 expression with ibudilast: normalized to no stimulant levels, n = 2
Description: as §1

[3] = 10 μM ibudilast 1 h before stimulant, LPS 10 ng/mL, 9 hours post-stimulation
[4] = 10 μM ibudilast 1 h before stimulant, MIF 0.8 nM, 9 hours post-stimulation
[5] = 10 μM ibudilast 1 h before stimulant, MIF 8 nM, 9 hours post-stimulation
[6] = 10 μM ibudilast 1 h before stimulant, MIF 80 nM, 9 hours post-stimulation
[7] = 10 μM ibudilast, No Stimulant (quiescent cells)
[8] = 10 μM ibudilast, recombinant human MIF stimulation

## CC(C)C(=O)c1c(C(C)C)nn2ccccc12 [ibudilast, 3-isobutyryl-2-isopropylpyrazolo[1,5-a]pyridine]
[1]; [3]
  % change in VCAM-1 expression with ibudilast: −1.5%
[1]; [4]
  % change in VCAM-1 expression with ibudilast: −2.9%
[1]; [5]
  % change in VCAM-1 expression with ibudilast: 4.4%
[1]; [6]
  % change in VCAM-1 expression with ibudilast: 5.4%
[1]; 10 μM ibudilast, LPS 10 ng/mL
  effect on LPS induction of VCAM-1 (in words): not significantly affected
[1]; [7]
  % change in VCAM-1 expression with ibudilast: 95.1%
[1]; [8]
  effect on recombinant MIF-induced expression of VCAM-1 (in words): antagonizes
[2]; [3]
  % change in ICAM-1 expression with ibudilast: 74.5%
[2]; [4]
  % change in ICAM-1 expression with ibudilast: −2.5%
[2]; [5]
  % change in ICAM-1 expression with ibudilast: −0.95%
[2]; [6]
  % change in ICAM-1 expression with ibudilast: −1.3%
[2]; 10 μM ibudilast, LPS 10 ng/mL
  effect on LPS induction of ICAM-1 (in words): not significantly affected
[2]; [7]
  % change in ICAM-1 expression with ibudilast: 30.9%
[2]; [8]
  effect on recombinant MIF-induced expression of ICAM-1 (in words): antagonizes
